{"source": "patent US20170009119A1", "about": "“DIELECTRIC FLUID AND COOLANT MADE WITH BIOBASED BASE OIL” (Novvi LLC, priority 2014, published 2017)", "origin": "cited, not measured here", "system": "aquatic life", "details": "European Directive 67/548/EEC"}
{"smiles": "c1ccc2c(c1)CCCC2", "note": "[tetralin, 1,2,3,4-tetrahydronaphthalene]", "values": [{"measurement": "toxicity to aquatic life (code R51/53)", "value": "toxic to aquatic life with long lasting effects"}]}
